Structures are written as SMILES.

As usually defined, the Kd is the equilibrium constant for the complex coming apart. A low value points to tighter binding.

For one experiment, the target named is SdSTING. The experiment can be described thus: EMSA titration with […]-labeled ligand. Type of experiment: binding, Stephanoeca diplocostata. For orientation: A gel shift assay detects complexes by their altered migration in electrophoresis.
Another experiment addresses DgSTING. As to the kind of experiment: EMSA titration with […]-labeled ligand. Type of experiment: binding, Diaphanoeca grandis.

In the case of `Nc1nc2c(ncn2[C@@H]2O[C@@H]3COP(=O)(O)O[C@H]4[C@@H](O)[C@H](n5cnc6c(=O)[nH]c(N)nc65)O[C@@H]4COP(=O)(O)O[C@H]3[C@H]2O)c(=O)[nH]1` [3′3′-c-di-GMP], the values for the Kd on SdSTING and at DgSTING were 1750 nM and 590 nM, respectively.

Source of the values: publication doi:10.1101/2025.09.04.674280 (bioRxiv, 2025).
